Experimental data taken from patent US10499642B2, “Isoxazoline-substituted benzamides and analogues as insecticides” (SYNGENTA PARTICIPATIONS AG, priority 2015, dated 2019).

How the values were obtained:
Assay type in all cases: in vivo
Plutella xylostella = Plutella xylostella (diamond back moth) artificial diet test; conditions: 120 h, read-out: effect in at least one of the two categories (mortality or growth inhibition)
In short: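 At a 200 ppm rate, test solutions were applied to artificial diet and allowed to dry before second-instar larvae were added. Five days later, larval mortality and growth inhibition were rated against untreated samples.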

Myzus persicae = Myzus persicae (green peach aphid) sunflower leaf disc test; conditions: foliar, 144 h
Procedure: Myzus persicae (Green Peach Aphid):
Sunflower leaf discs were placed on agar in a 24-well microtiter plate and sprayed with test solutions at an application rate of 200 ppm. After drying, the leaf discs were infested with an aphid population of mixed ages. After an incubation period of 6 days after treatment, samples were checked for mortality. The following compounds gave at least 80% mortality of Myzus persicae: […]

Tetranychus urticae = Tetranychus urticae (two-spotted spider mite) bean leaf disc test; conditions: foliar, 192 h
Procedure: Tetranychus urticae (Two-Spotted Spider Mite):
Bean leaf discs on agar in 24-well microtiter plates were sprayed with aqueous test solutions prepared from 10′000 ppm DMSO stock solutions. After drying the leaf discs were infested with a mite population of mixed ages. The samples were assessed for mortality on mixed population (mobile stages) 8 days after infestation.

Thrips tabaci = Thrips tabaci (onion thrips) sunflower leaf disc test; conditions: foliar, 144 h
Procedure: Thrips tabaci (Onion Thrips):
Sunflower leaf discs were placed on agar in 24-well microtiter plates and sprayed with aqueous test solutions prepared from 10′000 ppm DMSO stock solutions. After drying the leaf discs were infested with a thrips population of mixed ages. The samples were assessed for mortality 6 days after infestation.

Spodoptera littoralis = Spodoptera littoralis (Egyptian cotton leaf worm) cotton leaf disc test; conditions: foliar, 72 h, read-out: control (at least one of mortality, anti-feedant effect, and growth inhibition)
In short: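 Five first-instar larvae per disc were placed on dried, sprayed cotton leaf discs held on agar. Test solutions were aqueous, made from 10′000 ppm DMSO stocks. At day 3, control was counted when mortality, feeding deterrence or growth inhibition exceeded the untreated discs.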

Diabrotica Balteata = assay: Diabrotica balteata (corn root worm) maize sprout test; conditions: 96 h, read-out: effect in at least one of the two categories (mortality or growth inhibition)
In short: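 Scoring covered both mortality and growth inhibition relative to untreated controls, 4 days post-infestation. Test solutions at 200 ppm, diluted in water from 10′000 ppm DMSO stocks, were sprayed onto agar-held maize sprouts, which after drying received 6 to 10 L2 larvae each well.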

CC1=NOC(NC(=O)c2ccc(C3=NO[C@@](c4cc(Cl)cc(Cl)c4)(C(F)(F)F)C3)cc2C)C1 (stereo partly drawn) [Compound A141]
≥ 80%: percent effect (mortality or growth inhibition) at 200 ppm (Plutella xylostella) | mortality at 200 ppm (Myzus persicae) | mortality at 200 ppm (Tetranychus urticae) | mortality at 200 ppm (Thrips tabaci) | percent control (mortality, anti-feedant effect or growth inhibition) at 200 ppm (Spodoptera littoralis) | percent effect (mortality or growth inhibition) at 200 ppm (Diabrotica Balteata)

CCOC1=NOC(NC(=O)c2ccc(C3=NO[C@@](c4cc(Cl)c(Cl)c(Cl)c4)(C(F)(F)F)C3)cc2C)C1 (stereo partly drawn) [Compound A059]
≥ 80%: percent effect (mortality or growth inhibition) at 200 ppm (Plutella xylostella) | mortality at 200 ppm (Myzus persicae) | mortality at 200 ppm (Tetranychus urticae) | mortality at 200 ppm (Thrips tabaci) | percent control (mortality, anti-feedant effect or growth inhibition) at 200 ppm (Spodoptera littoralis) | percent effect (mortality or growth inhibition) at 200 ppm (Diabrotica Balteata)

Cc1cc(C2=NO[C@@](c3cc(Cl)c(F)c(Cl)c3)(C(F)(F)F)C2)ccc1C(=O)NC1CC(Cl)=NO1 (stereo partly drawn) [Compound A003, N-(3-chloro-4,5-dihydroisoxazol-5-yl)-4-[(5S)-5-(3,5-dichloro-4-fluoro-phenyl)-5-(trifluoromethyl)-4H-isoxazol-3-yl]-2-methyl-benzamide]
≥ 80%: percent effect (mortality or growth inhibition) at 200 ppm (Plutella xylostella) | mortality at 200 ppm (Myzus persicae) | mortality at 200 ppm (Tetranychus urticae) | mortality at 200 ppm (Thrips tabaci) | percent control (mortality, anti-feedant effect or growth inhibition) at 200 ppm (Spodoptera littoralis) | percent effect (mortality or growth inhibition) at 200 ppm (Diabrotica Balteata)

Cc1cc(C2=NO[C@@](c3cc(Cl)c(F)c(Cl)c3)(C(F)(F)F)C2)ccc1C(=O)NC1CC(CO)=NO1 (stereo partly drawn) [Compound A087, 4-[(5S)-5-(3,5-dichloro-4-fluoro-phenyl)-5-(trifluoromethyl)-4H-isoxazol-3-yl]-N-[3-(hydroxymethyl)-4,5-dihydroisoxazol-5-yl]-2-methyl-benzamide]
≥ 80%: percent effect (mortality or growth inhibition) at 200 ppm (Plutella xylostella) | mortality at 200 ppm (Myzus persicae) | mortality at 200 ppm (Tetranychus urticae) | mortality at 200 ppm (Thrips tabaci) | percent control (mortality, anti-feedant effect or growth inhibition) at 200 ppm (Spodoptera littoralis) | percent effect (mortality or growth inhibition) at 200 ppm (Diabrotica Balteata)

Cc1cc(C2=NO[C@@](c3cc(Cl)cc(Cl)c3)(C(F)(F)F)C2)ccc1C(=O)NC1CC(OCC(F)(F)F)=NO1 (stereo partly drawn) [Compound A130, 4-[(5S)-5-(3,5-dichlorophenyl)-5-(trifluoromethyl)-4H-isoxazol-3-yl]-2-methyl-N-[3-(2,2,2-trifluoroethoxy)-4,5-dihydroisoxazol-5-yl]benzamide]
≥ 80%: percent effect (mortality or growth inhibition) at 200 ppm (Plutella xylostella) | mortality at 200 ppm (Myzus persicae) | mortality at 200 ppm (Tetranychus urticae) | mortality at 200 ppm (Thrips tabaci) | percent control (mortality, anti-feedant effect or growth inhibition) at 200 ppm (Spodoptera littoralis) | percent effect (mortality or growth inhibition) at 200 ppm (Diabrotica Balteata)

Cc1cc(C2=NO[C@@](c3cc(Cl)c(Cl)c(Cl)c3)(C(F)(F)F)C2)ccc1C(=O)NC1CC(OCc2ccccn2)=NO1 (stereo partly drawn) [Compound A112, 2-methyl-N-[3-(2-pyridylmethoxy)-4,5-dihydroisoxazol-5-yl]-4-[(5S)-5-(3,4,5-trichlorophenyl)-5-(trifluoromethyl)-4H-isoxazol-3-yl]benzamide]
≥ 80%: percent effect (mortality or growth inhibition) at 200 ppm (Plutella xylostella) | mortality at 200 ppm (Myzus persicae) | mortality at 200 ppm (Tetranychus urticae) | mortality at 200 ppm (Thrips tabaci) | percent control (mortality, anti-feedant effect or growth inhibition) at 200 ppm (Spodoptera littoralis) | percent effect (mortality or growth inhibition) at 200 ppm (Diabrotica Balteata)

Cc1cc(C2=NO[C@@](c3cc(Cl)c(Cl)c(Cl)c3)(C(F)(F)F)C2)ccc1C(=O)NC1CC(OCCC(C)C)=NO1 (stereo partly drawn) [Compound A106, N-(3-isopentyloxy-4,5-dihydroisoxazol-5-yl)-2-methyl-4-[(5S)-5-(3,4,5-trichlorophenyl)-5-(trifluoromethyl)-4H-isoxazol-3-yl]benzamide]
≥ 80%: percent effect (mortality or growth inhibition) at 200 ppm (Plutella xylostella) | mortality at 200 ppm (Myzus persicae) | mortality at 200 ppm (Tetranychus urticae) | mortality at 200 ppm (Thrips tabaci) | percent control (mortality, anti-feedant effect or growth inhibition) at 200 ppm (Spodoptera littoralis) | percent effect (mortality or growth inhibition) at 200 ppm (Diabrotica Balteata)
